US8778951B2, “Heteroaryl compounds and their uses” (Novartis AG, priority 2009, dated 2014)

Target: Cdk9/cyclinT1 (Homo sapiens (Human), UniProt P50750)
Experiment: Cdk9/CyclinT1 IMAP Protocol (fluorescence polarization kinase assay)
Type: biochemical
Conditions: Table 2; generated using one of the two Cdk9/cyclinT1 assays (IMAP or Alpha Screen), not specified which; unit inferred
Outline: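 Reaction used 4 nM Cdk9/cyclinT1, 100 nM 5TAMRA-cdk7tide peptide and 6 uM ATP in 100 mM Tris pH 7.2 with MgCl2, 0.01% Tween-20, 1 mM DTT and 2.5% DMSO, running 4.5 h. Phosphopeptide was captured by IMAP binding reagent for >1 h, then read by fluorescence polarization (ex 531/em 595 nm).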

Chain of Cdk9/cyclinT1 (P50750 whole entry): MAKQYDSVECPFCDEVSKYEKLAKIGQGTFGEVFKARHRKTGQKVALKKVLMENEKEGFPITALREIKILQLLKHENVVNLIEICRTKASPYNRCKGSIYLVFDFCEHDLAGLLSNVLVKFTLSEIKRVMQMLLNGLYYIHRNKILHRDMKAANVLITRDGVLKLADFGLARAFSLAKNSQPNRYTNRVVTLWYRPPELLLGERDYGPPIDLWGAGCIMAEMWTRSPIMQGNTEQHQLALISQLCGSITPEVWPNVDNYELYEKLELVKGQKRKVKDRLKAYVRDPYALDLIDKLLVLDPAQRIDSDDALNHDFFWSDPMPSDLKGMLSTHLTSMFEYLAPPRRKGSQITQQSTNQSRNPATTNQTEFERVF
Chain of Cdk9/cyclinT1 (O60563 whole entry partner): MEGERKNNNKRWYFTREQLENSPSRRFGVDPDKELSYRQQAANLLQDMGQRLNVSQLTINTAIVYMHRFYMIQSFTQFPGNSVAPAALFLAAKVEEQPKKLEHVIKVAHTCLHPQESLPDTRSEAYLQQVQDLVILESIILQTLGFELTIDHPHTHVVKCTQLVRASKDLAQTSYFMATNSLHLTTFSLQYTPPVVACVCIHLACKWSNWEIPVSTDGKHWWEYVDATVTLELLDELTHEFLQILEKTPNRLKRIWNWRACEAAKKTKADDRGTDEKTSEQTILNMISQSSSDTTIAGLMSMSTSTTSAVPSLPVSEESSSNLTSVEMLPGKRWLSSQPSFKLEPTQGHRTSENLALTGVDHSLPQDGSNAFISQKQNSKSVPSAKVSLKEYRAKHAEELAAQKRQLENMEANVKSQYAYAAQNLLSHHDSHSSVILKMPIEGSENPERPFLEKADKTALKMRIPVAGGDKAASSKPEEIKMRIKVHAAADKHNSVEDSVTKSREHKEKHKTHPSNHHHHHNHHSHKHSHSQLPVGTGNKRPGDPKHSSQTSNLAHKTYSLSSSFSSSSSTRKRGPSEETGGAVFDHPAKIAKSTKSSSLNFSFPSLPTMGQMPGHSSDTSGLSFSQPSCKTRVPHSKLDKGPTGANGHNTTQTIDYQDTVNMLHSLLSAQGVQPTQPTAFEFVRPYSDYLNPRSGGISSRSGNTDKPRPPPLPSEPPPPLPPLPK

Row | SMILES | IC50
1 | Fc1cccc(CNc2cccc(-c3cc(NC4CCNCC4)ncc3Cl)n2)c1 [Compound 5, 5′-chloro-N6-(3-fluorobenzyl)-N2′-(piperidin-4-yl)-2,4′-bipyridine-2′,6-diamine] | 39.7 nM
2 | N[C@H]1CC[C@H](Nc2cc(-c3cccc(NCC4CCCCC4)n3)c(Cl)cn2)CC1 [Compound 24] | 12.4 nM
3 | NC(=O)c1cc(NCc2cccc(F)c2)nc(-c2cc(N[C@H]3CC[C@H](N)CC3)ncc2Cl)c1 [Compound 16, 2′-(trans-4-aminocyclohexylamino)-5′-chloro-6-(3-fluorobenzylamino)-2,4′-bipyridine-4-carboxamide] | 23.6 nM
4 | Clc1cnc(NC[C@H]2CCCN2)cc1-c1cccc(NCC2CCOCC2)n1 [Compound 303] | 1300 nM
5 | Clc1cnc(N[C@H]2CC[C@H](NC3CCOC3)CC2)cc1-c1nc(NCC2CCOCC2)ccc1Cl (mixture of isomers) [Compound 280, 3,5′-dichloro-N6-((tetrahydro-2H-pyran-4-yl)methyl)-N2′-(trans-4-(tetrahydrofuran-3-yl-amino)cyclohexyl)-2,4′-bipyridine-2′,6-diamine] | 16.1 nM
6 | Nc1ncc(-c2cc(N[C@H]3CC[C@H](O)CC3)ncc2Cl)nc1NCC1CCOCC1 [Compound 227] | 25.9 nM
7 | Fc1cccc(CNc2cccc(-c3cc(N[C@@H]4CCCOC4)ncc3Cl)n2)c1 [Compound 148] | 15600 nM
8 | Fc1cccc(CNc2cccc(-c3cc(NC4CCCC4)ncc3Cl)n2)c1 [Compound 140] | 12.6 nM
9 | Clc1cnc(N[C@H]2CCCNC2)cc1-c1cccc(NCc2ccncc2)n1 [Compound 99] | 679 nM
10 | O[C@H]1CC[C@H](Nc2cc(-c3cccc(NCC4CCCOC4)n3)c(Cl)cn2)CC1 (some centres unmarked) [Compound 128] | 33.4 nM
11 | NCCCNc1cc(-c2cccc(NCc3cccc(F)c3)n2)c(Cl)cn1 [Compound 144] | 15.8 nM
12 | N[C@H]1CC[C@H](Nc2cc(-c3cccc(NCc4ccccc4Cl)n3)c(Cl)cn2)CC1 [Compound 42] | 48.1 nM
13 | OCCNc1cc(-c2cncc(NCC3CCOCC3)n2)c(Cl)cn1 [Compound 210] | 86 nM
14 | CN(C)CCCCNc1cc(-c2cccc(NCc3cccc(F)c3)n2)c(Cl)cn1 [Compound 161] | 26 nM
15 | OC[C@H]1CC[C@H](Nc2cc(-c3cncc(NCC4CCOCC4)n3)c(Cl)cn2)CC1 [Compound 242] | 15.4 nM
16 | Cc1ncc(-c2cc(N[C@H]3CC[C@H](N)CC3)ncc2Cl)nc1NCC1CCOCC1 [Compound 231, trans-N1-(5-chloro-4-(5-methyl-6-((tetrahydro-2H-pyran-4-yl)methyl)aminopyrazin-2-yl)pyridin-2-yl)cyclohexane-1,4-diamine] | 14.9 nM
17 | N[C@H]1CC[C@H](Nc2ncc(Cl)c(-c3cccc(NCc4ccncc4)n3)n2)CC1 [Compound 35] | 55.8 nM
18 | CC(=O)N1CCC[C@@H](CNc2cccc(-c3ccnc(N[C@H]4CC[C@H](N)CC4)c3)n2)C1 [Compound 218] | 128 nM
19 | Clc1cnc(N[C@@H]2CCCNC2)cc1-c1cccc(NCc2ccncc2)n1 [Compound 93] | 928 nM
20 | N[C@H]1CC[C@H](Nc2cc(-c3cc(C(=O)O)cc(NCc4cccc(F)c4)n3)c(Cl)cn2)CC1 [Compound 17, 2′-(trans-4-aminocyclohexylamino)-5′-chloro-6-(3-fluorobenzylamino)-2,4′-bipyridine-4-carboxylic acid] | 23.2 nM
21 | CCc1ncc(-c2cc(N[C@H]3CC[C@H](N)CC3)ncc2Cl)nc1NCC1CCOCC1 [Compound 241, trans-N^1-(5-chloro-4-(5-ethyl-6-((tetrahydro-2H-pyran-4-yl)methyl)aminopyrazin-2-yl)pyridin-2-yl)cyclohexane-1,4-diamine] | 61.8 nM
22 | NCC(O)CNc1cc(-c2cccc(NCc3cccc(F)c3)n2)c(Cl)cn1 (centres unmarked) [Compound 195] | 35.6 nM
23 | Fc1cccc(CNc2cccc(-c3cc(NC[C@H]4CCCNC4)ncc3Cl)n2)c1 [Compound 164] | 39 nM
24 | Fc1cccc(CNc2cccc(-c3cc(N[C@H]4CCCOC4)ncc3Cl)n2)c1 [Compound 150] | 6510 nM
25 | O[C@H]1CC[C@H](Nc2cc(-c3cccc(NC[C@@H]4CCCNC4)n3)c(Cl)cn2)CC1 [Compound 123] | 42.8 nM
26 | Clc1cnc(N[C@H]2CCCNC2)cc1-c1cccc(NCC2CCCCC2)n1 [Compound 95] | 1950 nM
27 | CCS(=O)(=O)N[C@H]1CC[C@H](Nc2cc(-c3cccc(NCc4cccc(F)c4)n3)c(Cl)cn2)CC1 [Compound 78] | 24.2 nM
28 | N[C@H]1CC[C@H](Nc2cc(-c3cccc(NCc4cccc(OC(F)F)c4)n3)c(Cl)cn2)CC1 [Compound 36] | 8.91 nM
29 | NC[C@H]1CC[C@H](Nc2cc(-c3cccc(NCc4ccccc4)n3)c(Cl)cn2)CC1 [Compound 57] | 32.6 nM

More lines, in order of falling IC50, values ahead:

Row | IC50 | SMILES
30 | 12.1 nM | COc1cnc(N[C@H]2CC[C@H](N)CC2)cc1-c1cccc(NCc2cccc(F)c2)n1 [Compound 180, N2′-(trans-4-aminocyclohexyl)-N6-(3-fluorobenzyl)-5′-methoxy-2,4′-bipyridine-2′,6-diamine]
31 | 9.11 nM | O[C@@H]1CC[C@H](Nc2cc(-c3cccc(NCc4cccc(F)c4)n3)c(Cl)cn2)C1 [Compound 184]
32 | 8.33 nM | CS(=O)(=O)CCN[C@H]1CC[C@H](Nc2cc(-c3nc(NCC4CCOCC4)ccc3Cl)c(Cl)cn2)CC1 [Compound 254, 3,5′-dichloro-N2′-(trans-4-(2-(methylsulfonyl)ethylamino)cyclohexyl)-N6-((tetrahydro-2H-pyran-4-yl)methyl)-2,4′-bipyridine-2′,6-diamine]
33 | 7.95 nM | OCCCNc1cc(-c2cccc(NCc3cccc(F)c3)n2)c(Cl)cn1 [Compound 146]
34 | 7.95 nM | O[C@H]1CC[C@H](Nc2cc(-c3cnc(Cl)c(NCC4CCOCC4)n3)c(Cl)cn2)CC1 [Compound 222, trans-4-(5-chloro-4-(5-chloro-6-((tetrahydro-2H-pyran-4-yl)methyl)aminopyrazin-2-yl)pyridin-2-yl-amino)cyclohexanol]
35 | 7.95 nM | N[C@H]1CC[C@H](Nc2cc(-c3nc(NCC4CCOCC4)cnc3Cl)ccn2)CC1 [Compound 232]
36 | 7.95 nM | COCCN[C@H]1CC[C@H](Nc2cc(-c3cncc(NCC4CCOCC4)n3)c(Cl)cn2)CC1 [Compound 243, trans-N1-(5-chloro-4-(6-((tetrahydro-2H-pyran-4-yl)methyl)aminopyrazin-2-yl)pyridin-2-yl)-N4-(2-methoxyethyl)cyclohexane-1,4-diamine]
37 | 7.95 nM | O[C@H]1CC[C@H](Nc2cc(-c3cncc(NCC4CCCOC4)n3)c(Cl)cn2)CC1 (some centres unmarked) [Compound 229]
38 | 7.95 nM | N[C@H]1CC[C@H](Nc2cc(-c3cccc(NCc4cccc(F)c4)n3)c(Cl)cn2)CC1 [Compound 1, N2′-(trans-4-aminocyclohexyl)-5′-chloro-N6-(3-fluorobenzyl)-2,4′-bipyridine-2′,6-diamine]
39 | 7.95 nM | N[C@H]1CC[C@H](Nc2cc(-c3nc(NCC4CCOCC4)cnc3Cl)c(Cl)cn2)CC1 [Compound 223, trans-N1-(5-chloro-4-(3-chloro-6-((tetrahydro-2H-pyran-4-yl)methyl)aminopyrazin-2-yl)pyridin-2-yl)cyclohexane-1,4-diamine]
40 | 7.95 nM | Cc1ncc(NCC2CCOCC2)nc1-c1cc(N[C@H]2CC[C@H](N)CC2)ncc1Cl [Compound 233, trans-N1-(5-chloro-4-(3-methyl-6-((tetrahydro-2H-pyran-4-yl)methyl)aminopyrazin-2-yl)pyridin-2-yl)cyclohexane-1,4-diamine]
41 | 7.94 nM | N[C@H]1CC[C@H](Nc2cc(-c3cncc(NC[C@H]4CCCOC4)n3)c(Cl)cn2)CC1 [Compound 261]
42 | 7.94 nM | CC1(C)C[C@H](CNc2cccc(-c3cc(N[C@H]4CC[C@H](N)CC4)ncc3Cl)n2)CCO1 (single isomer, unassigned) [Compound 256]
43 | 7.94 nM | N[C@H]1CC[C@H](Nc2cc(-c3cccc(NCc4cccc(F)c4)n3)c(F)cn2)CC1 [Compound 197]
44 | 7.94 nM | OCCCN[C@H]1CC[C@H](Nc2cc(-c3cccc(NCc4cccc(F)c4)n3)c(Cl)cn2)CC1 [Compound 200]
45 | 7.94 nM | OCCCCNc1cc(-c2cccc(NCc3cccc(F)c3)n2)c(Cl)cn1 [Compound 186]
46 | 7.9 nM | COCCN[C@H]1CC[C@H](Nc2cc(-c3cccc(NCc4cccc(F)c4)n3)c(Cl)cn2)CC1 [Compound 157]
47 | 2 nM | COCCN[C@H]1CC[C@H](Nc2cc(-c3cccc(NCC4C[C@@H](C)O[C@@H](C)C4)n3)c(Cl)cn2)CC1 (stereo partly drawn) [Compound 285, 5′-chloro-N6-(((2R,6S)-2,6-dimethyltetrahydro-2H-pyran-4-yl)methyl)-N2′-(trans-4-(2-methoxyethylamino)cyclohexyl)-2,4′-bipyridine-2′,6-diamine]
48 | 1 nM | CC1(CNc2nc(-c3cc(N[C@H]4CC[C@H](NC5CCS(=O)(=O)CC5)CC4)ncc3Cl)ccc2F)CCOCC1 [Compound 346]
49 | 1 nM | O=S1(=O)CCC(CN[C@H]2CC[C@H](Nc3cc(-c4ccc(F)c(NCC5CCOCC5)n4)c(Cl)cn3)CC2)CC1 [Compound 331]
50 | 1 nM | CC1(C)CC(CNc2ccc(Cl)c(-c3cc(N[C@H]4CC[C@H](O)CC4)ncc3Cl)n2)CCO1 (stereo partly drawn) [Compound 297, trans-4-(3,5′-dichloro-6-((2,2-dimethyltetrahydro-2H-pyran-4-yl)methyl)amino-2,4′-bipyridin-2′-yl-amino)cyclohexanol]
51 | 1 nM | COCCN[C@H]1CC[C@H](Nc2cc(-c3ccc(F)c(NCC4CCOCC4)n3)c(Cl)cn2)CC1 [Compound 314]
52 | 0.7 nM | COC[C@@H](C)N[C@H]1CC[C@H](Nc2cc(-c3cccc(NCC4(C)CCS(=O)(=O)CC4)n3)c(Cl)cn2)CC1 [Compound 365]
53 | 0.24 nM | N#CC1(CNc2cccc(-c3cc(N[C@H]4CC[C@H](O)CC4)ncc3Cl)n2)CCOCC1 [Compound 359, 4-((5′-chloro-2′-((1r,4r)-4-hydroxycyclohexylamino)-2,4′-bipyridin-6-ylamino)methyl)tetrahydro-2H-pyran-4-carbonitrile]
